Reference: patent US20210137950A1, “Pharmaceutical Composition for Treating Cerebral Infarction” (Kyoto University, priority 2018, published 2021)

Experiments:
primary cortical neurons [1] = assay: ATP assay (luciferase-based) after OGD; assay type: cell-based, rat
Procedure: (§1) Cortical neuronal cultures were prepared from 17-day-old Sprague Dawley rat embryos (Shimizu Laboratory Supplies) using methods described earlier (Maki T, et al, Annals of Clinical and Translational Neurology, 2014 August; 1(8):519-33). Briefly, cortices were dissected and dissociated. Cells were plated on dishes coated with poly-D-lysine in Dulbecco's modified Eagle's medium (DMEM) containing 5% heat-inactivated fetal bovine serum and 1% penicillin/streptomycin at a density of 200,000-250,000 cells/cm^2. At 24-hour after seeding, the medium was changed to Neurobasal (NB) medium containing 0.5 mM glutamine, 1% penicillin/streptomycin and 2% B27 supplement. Cultured neurons were used for experiments 14 days after seeding.
The medium was replaced with DMEM with no glucose. Then, the cells were placed into the sealed Anaero container with an Anaero Pack (Mitsubishi Gas Chemical Company) for 1.5-2 hours. […]
ATP levels in cell lysates were measured with luciferase chemiluminescence-based ATP assay reagent for cells (Toyo Ink) in accordance with the manufacturer's protocol. […] After incubating for 5 minutes at room temperature, luminescence of an aliquot of the solution was measured in a luminometer.
Cellular ATP levels were measured by the luciferase-based assay after 1.5 hour OGD. […]

C57BL/6 mice [2] = assay: Accelerating rotarod test after transient focal cerebral ischemia (distal MCAO with hypoxia); assay type: in vivo; details: KUS121 immediately after occlusion (100 mg/kg intravenously and 50 mg/kg intraperitoneally), 24 hours after occlusion, vehicle (5% Cremophor) 134.5±18.4, p<0.05, mean±SE
Procedure: (§2) Adult male C57BL/6 (C57BL/6NJcl) and CB-17 (CB-17/lcr-+/+Jcl) mice (6-7 weeks old) were purchased from Shimizu Laboratory supplies and Clea Japan, respectively. Animals were allowed access to food and water ad libitum.
(§3) In C57BL/6 mice, distal MCAO with hypoxia was performed as previously described with some modifications (Doyle K P, Fathali N, Siddiqui M R, et al. Distal hypoxic stroke: a new mouse model of stroke with high throughput, low variability and a quantifiable functional deficit. Journal of Neuroscience Methods, 2012 May 30; 207(1):31-40). Mice were placed in a large chamber containing 10% oxygen and 90% nitrogen after the occlusion of the distal MCA by a nylon suture. After 30 minutes of hypoxia, mice were returned to normoxic condition with removal of the nylon suture. Sham surgery were identical to the stroke surgery, except for the occlusion of the distal MCA.
Twenty-four hours after ischemia, mice were placed on an accelerating rotarod apparatus, in which the speed was accelerated from 0 to 40 rpm over 4 minutes. The time for which mice can remain on the rotating cylinder was measured. Three trials were performed and the best latency to fall was used. […]

NeuN = assay: Western blotting of NeuN in cerebral cortex after transient focal cerebral ischemia; assay type: in vivo; details: CB-17 mice, KUS121 before ischemia
Procedure: Cells were collected and lysed in RIPA buffer (20 mM HEPES-KOH pH 7.4, 150 mM NaCl, 2 mM EDTA, 1% Nonidet-P40, 1% sodium deoxycholate) containing 10% 2-mercaptoethanol (Nacalai tesque) and 1% protease inhibitor (Nacalai tesque). Dissected brain samples were homogenized in the RIPA buffer with 2-mercaptomethanol and protease inhibitor. Samples were sonicated and centrifuged at 4° C., 15,000 rpm for 15 minutes, and the supernatants were collected. Proteins (15-20 μg per lane) were loaded, and were separated by 5-20% SDS-PAGE and transferred to polyvinylidene fluoride membranes (Millipore). The following primary antibodies were used: β-actin (1:5000, Sigma Aldrich, A5441), CHOP (1:1000, Cell Signaling Technology, L63F7), NeuN (1:2000, Merck Millipore, ABN78), VCP (1:500, ABGENT, AP6920b). HRP-labeled secondary antibodies (Santa Cruz Biotechnology) were used for visualization by enhanced chemiluminescence (Nacalai tesque). […]
In CB-17 mice, distal middle cerebral artery occlusion (distal MCAO) was performed as previously described with minor modifications (Kasahara Y, Ihara M, Nakagomi T, et al. A highly reproducible model of cerebral ischemia/reperfusion with extended survival in CB-17 mice. Neuroscience Research, 2013 July; 76(3):163-8). […] During surgery, rectal temperature was monitored and controlled at 36.0-37.2° C. by a feedback-regulated heating pad. […]

CB-17 mice = assay: Infarction volume after transient focal cerebral ischemia (distal MCAO); assay type: in vivo; details: KUS121 immediately before the ischemia, vehicle (5% Cremophor) 11.8±0.60%, p<0.05, mean±SE
Procedure: as §2
In CB-17 mice, distal middle cerebral artery occlusion (distal MCAO) was performed as previously described with minor modifications (Kasahara Y, Ihara M, Nakagomi T, et al. A highly reproducible model of cerebral ischemia/reperfusion with extended survival in CB-17 mice. Neuroscience Research, 2013 July; 76(3):163-8). In brief, general anesthesia was induced and maintained by inhalation of 4% and 1.5% isoflurane (Pfizer), respectively. Mice were placed in a lateral position, and a skin incision was made between the left eyeball and the left external auditory canal. The left salivary gland and a part of the temporalis muscle were resected to allow visualization of the middle cerebral artery (MCA) through the cranial bone. A burr hole was made in the cranial bone. […] During surgery, rectal temperature was monitored and controlled at 36.0-37.2° C. by a feedback-regulated heating pad.
(§4) Mice were deeply anesthetized and perfused transcardially with PBS and 4% PFA 24 hours after ischemia. […] The area of the ipsilateral hemisphere and the area of the infarct on each section were measured using NIH imageJ software. […]

primary cortical neurons [3] = assay: Cell viability test (CCK-8) after oxygen-glucose deprivation (OGD); assay type: cell-based, rat; details: for neuronal viability after OGD: 2 hours OGD + 22 hours recovery, vehicle (DMSO) 18.1±1.9%, p<0.001, mean±SE
Procedure: as §1
(§5) The medium was replaced with DMEM with no glucose. Then, the cells were placed into the sealed Anaero container with an Anaero Pack (Mitsubishi Gas Chemical Company) for 1.5-2 hours. Following oxygen glucose deprivation, cells were switched to the normal medium and returned to a normoxic 5% CO2 incubator.
Cell viability was assessed by Cell Counting Kit-8 (CCK-8) assay (Dojindo Laboratories). The CCK-8 assay is based on the conversion of a water-soluble tetrazolium salt, 2-(2-methoxy-4-nitrophenyl)-3-(4-nitrophenyl)-5-(2,4-disulfophenyl)-2H-tetrazolium, monosodium salt (WST-8), to a water-soluble formazan dye upon reduction by dehydrogenases in the presence of an electron carrier. The cells were incubated with 10% CCK-8 solution for 1-2 hour at 37° C. Then the absorbance of the culture medium was measured with a microplate reader at a test wavelength of 450 nm and a reference wavelength of 630 nm.
To assess protective effects of KUS121 on neurons in ischemic conditions, cell viability tests were performed after oxygen-glucose deprivation (OGD) in both the presence and the absence of KUS121 (FIG. 1, top). OGD was performed in rat cortical primary neuronal cultures for 2 hours with subsequent recovery at 21% 02 and glucose-containing media for further 22 hours. Control neurons were kept at 21% 02 in glucose-containing media for 24 hours. […]

[4] = test system: C/EBP-homologous protein (CHOP); assay: Western blot of CHOP expression after tunicamycin treatment (ER stress); assay type: cell-based, rat; details: 0.25 μg/mL tunicamycin for 6 hours
Procedure: as §1
Cells were collected and lysed in RIPA buffer (20 mM HEPES-KOH pH 7.4, 150 mM NaCl, 2 mM EDTA, 1% Nonidet-P40, 1% sodium deoxycholate) containing 10% 2-mercaptoethanol (Nacalai tesque) and 1% protease inhibitor (Nacalai tesque). Dissected brain samples were homogenized in the RIPA buffer with 2-mercaptomethanol and protease inhibitor. Samples were sonicated and centrifuged at 4° C., 15,000 rpm for 15 minutes, and the supernatants were collected. Proteins (15-20 μg per lane) were loaded, and were separated by 5-20% SDS-PAGE and transferred to polyvinylidene fluoride membranes (Millipore). […]

primary cortical neurons [5] = assay: MAP2 immunocytochemistry after OGD; assay type: cell-based, rat; details: 100 μM KUS, vehicle (DMSO) 0.87±0.13%, p<0.05, mean±SE
Procedure: as §1, §5
The cells were washed twice with phosphate buffered saline (PBS), followed by 4% paraformaldehyde (PFA) for 15 minutes. After being further washed twice with PBS, they were incubated with PBS/0.1% Tween (10 min) and blocked with 3% BSA/PBS (1 hour at room temperature). […]

C57BL/6 mice [6] = assay: Infarction volume after transient focal cerebral ischemia (distal MCAO with hypoxia); assay type: in vivo; details: KUS121 immediately after occlusion (100 mg/kg intravenously and 50 mg/kg intraperitoneally), 24 hours after ischemia, vehicle (5% Cremophor) 8.8±0.63%, p<0.05, mean±SE
Procedure: as §2, §3
as §4, with “ischemia. The brains were extracted and post-fixed in 4% PFA for 48 hours. They were further cryoprotected in 20% sucrose until they sunk to the bottom of the vial.” for “ischemia.”

SMILES: Cc1cc(F)ccc1-c1ccc(N=Nc2cc(S(=O)(=O)[O-])c3ccccc3c2N)cn1.[Na+] [KUS121, 4-amino-3-[6-(4-fluoro-2-methylphenyl)pyridine-3-ylazo]naphthalene-1-sulfonic acid sodium salt]
- ATP levels (primary cortical neurons [1]; 100 μM KUS, after 1.5 hour OGD, vehicle (DMSO) 14.3±1.1%, p<0.001, mean±SE): 28.0±2.3%
- ATP levels without OGD (primary cortical neurons [1]; without OGD): no effect
- rotarod retention time (C57BL/6 mice [2]): 201.0 ± 21.8 s
- expression of NeuN in cerebral cortex (NeuN): preserved
- infarction volumes (CB-17 mice): 5.74±1.64%
- neuronal viability after OGD (primary cortical neurons [3]; 100 μM KUS throughout): 43.5±3.1%
- neuronal viability after OGD (primary cortical neurons [3]; 200 μM KUS throughout): 42.4±3.7%
- neuronal viability without OGD (primary cortical neurons [3]; without OGD): no effect
- expression of CHOP [4]: suppressed
- MAP2-positive area (primary cortical neurons [5]): 2.64±0.41%
- infarction volumes (C57BL/6 mice [6]): 4.7±1.70%
